Data on 87 compounds can be found in ChEMBL document CHEMBL1151935, “Improvement of pharmacological properties of irreversible thyroid receptor coactivator binding inhibitors” (J Med Chem, 2009).

By Papp is commonly meant a coefficient for how fast a substance crosses the barrier. High values mean fast passage, low ones slow passage.

The nature of the data set: in vitro. Particulars: PAMPA, pH 7.4. (In general: The PAMPA barrier holds no transporters, so it reflects passive diffusion.)

For `CCOCCOc1ccc(C(=O)CCN(C)C)cc1`, the Papp came to 160 ×10⁻⁶ cm/s.
Consider `CCCCCCSc1ccc(C(=O)CCN(C)C)c(Cl)c1`, for which the apparent permeability coefficient (Papp) was found to be 610 ×10⁻⁶ cm/s.
The figure for `CCCCCCOc1ccc(C(=O)CCNc2cccc(Cl)c2)cc1` is 2 ×10⁻⁶ cm/s; for `CCCCCCS(=O)(=O)c1cc(C)c(C(=O)CCN2CCNC(=O)C2)c(C)c1` it is 480 ×10⁻⁶ cm/s.
The figure for `CCCCCCOc1c(C)cc(C(=O)CCN(C)C)cc1C` is 730 ×10⁻⁶ cm/s.
Under `CCCCCCOc1cc(C)c(C(=O)CCN(C)C)c(C)c1` stands 650 ×10⁻⁶ cm/s.
As for `CCCCCCOc1ccc(C(=O)CCN(C)C)cc1S(C)(=O)=O`, the Papp stood at 730 ×10⁻⁶ cm/s. This Papp and that of the compound before are within 1.5-fold of each other.
The figure for `CCCCCCS(=O)(=O)c1ccc(C(=O)CCN(C)C)c(Cl)c1Cl` is 220 ×10⁻⁶ cm/s; for `CCCCCCOc1ccc(C(=O)CCN(C)C)cc1Cc1ccccc1` it is 230 ×10⁻⁶ cm/s; for `CCCCCCS(=O)(=O)c1cc(Cl)c(C(=O)CCN2CCN(C(C)=O)CC2)c(Cl)c1` it is 480 ×10⁻⁶ cm/s.
On to `CCCCCCOc1ccc2c(c1)OCC(CN(C)C)C2=O` (configuration not stated), for which the Papp was found to be 700 ×10⁻⁶ cm/s. The Papp values of the last two compounds are within 1.5-fold of each other.
`CCCCCCOc1ccc(C(=O)CCN2CCOCC2)c(Cl)c1Cl` yielded a Papp of 930 ×10⁻⁶ cm/s.
The figure for `CCCCCCOc1cc(Cl)c(C(=O)CCN(C)C)c(Cl)c1` is 700 ×10⁻⁶ cm/s.
For `CCCCCCSc1cc(C)c(C(=O)CCN2CCN(S(=O)(=O)CC)CC2)c(C)c1`, the Papp came to 160 ×10⁻⁶ cm/s.
With `CCCCCCS(=O)(=O)c1ccc(C(=O)CCN(C)C)c(Cl)c1`, the Papp stood at 380 ×10⁻⁶ cm/s.
The compound `CCCCCCOc1ccc(C(=O)C(CN(C)C)c2ccccc2)cc1` (configuration not stated) displayed a Papp of 910 ×10⁻⁶ cm/s.
Under `CCCCCCS(=O)(=O)c1ccc(C(=O)CCN2CCOCC2)c(Cl)c1` stands 760 ×10⁻⁶ cm/s.
Under `CCCCCCS(=O)(=O)c1ccc(C(=O)CCN2CCN(C(C)=O)CC2)c(Cl)c1` stands 360 ×10⁻⁶ cm/s.
The compound `CCCCCCOc1ccc(C(=O)CCNc2ccccc2)cc1` registered a Papp of 0.2 ×10⁻⁶ cm/s.
Under `CCCCCCOc1cc(Cl)c(C(=O)CCN2CCOCC2)c(Cl)c1` stands above 1 ×10⁻⁶ cm/s; under `CCCCCCS(=O)(=O)c1ccc(C(=O)CCN2CCOCC2)c(Cl)c1Cl`, 560 ×10⁻⁶ cm/s.
`CCCCCCOc1ccc(C(=O)CCN(C)C)cc1OC` showed a Papp of 950 ×10⁻⁶ cm/s. Compared with the last compound, the Papp is about 1.7-fold higher.
The figure for `CCN1CCC(Cc2ccc(C(=O)CCN(C)C)cc2)CC1` is 140 ×10⁻⁶ cm/s; for `CCCCCCSc1ccc(C(=O)CCN2CCN(S(=O)(=O)CC)CC2)c(Cl)c1Cl` it is 30 ×10⁻⁶ cm/s; for `CCCCCCOc1cccc(C(=O)CCN(C)C)c1` it is 830 ×10⁻⁶ cm/s.
The figure for `CCCCCCOc1ccc(C(=O)CCN(C)C)c(Br)c1` is 80 ×10⁻⁶ cm/s; for `CCCCCCOc1cc(Cl)c(C(=O)CCN2CC2C)c(Cl)c1` (configuration not stated) it is above 1 ×10⁻⁶ cm/s; for `CCCCCCSc1ccc(C(=O)CCN2CCN(S(=O)(=O)CC)CC2)c(Cl)c1` it is 740 ×10⁻⁶ cm/s.
`CCCCCCOc1ccc(C(=O)CCN(C)C)cc1C(C)(C)C` registered a Papp of 190 ×10⁻⁶ cm/s.
The compound `CCCCCCOc1ccc(C(=O)CCN(C)C)cc1F` registered a Papp of 700 ×10⁻⁶ cm/s.
Take `CCCCCCOc1ccc(C(=O)CCN(C)C)c2ccccc12`: the Papp is 660 ×10⁻⁶ cm/s.
Under `CCCCCCOc1ccc2c(c1)CCC(CN(C)C)C2=O` (configuration not stated) stands 710 ×10⁻⁶ cm/s; under `CCCCCCSc1cc(Cl)c(C(=O)CCN2CC2C)cc1Cl` (configuration not stated), 140 ×10⁻⁶ cm/s.
The figure for `CCCCCCOc1ccc(C(=O)CCN(C)C)c(N(C)C)c1` is 170 ×10⁻⁶ cm/s.
Under `CCCCCCOc1cc(C)c(C(=O)CCN2CC2C)c(C)c1` (configuration not stated) stands 930 ×10⁻⁶ cm/s.
As to `CCCCCCOc1cc(Cl)c(C(=O)CCN2CC2C)cc1Cl` (configuration not stated), the Papp stood at 810 ×10⁻⁶ cm/s.
As to `CCCCCS(=O)(=O)Nc1ccc(C(=O)CCN(C)C)cc1`, the Papp worked out at 50 ×10⁻⁶ cm/s.
For `CCCCCCOc1ccc2c(c1)CC(CN(C)C)C2=O` (configuration not stated), the Papp came out at 230 ×10⁻⁶ cm/s.
The figure for `CCCCCCOc1ccc(C(=O)CCN2CCN(S(=O)(=O)CC)CC2)c(Cl)c1Cl` is above 1 ×10⁻⁶ cm/s.
`CCCCCCOc1ccc(C(=O)CCN(C)C)c(S(C)(=O)=O)c1` returned a Papp of 850 ×10⁻⁶ cm/s.
The figure for `CCCCCCSc1cc(Cl)c(C(=O)CCN2CCOCC2)c(Cl)c1` is 10 ×10⁻⁶ cm/s; for `CCCCCCOc1ccc(C(=O)CCN(C)C)c(C(F)(F)F)c1` it is 500 ×10⁻⁶ cm/s.
Under `CCCCCCS(=O)(=O)c1ccc(C(=O)CCN2CCN(S(=O)(=O)CC)CC2)c(Cl)c1Cl` stands 380 ×10⁻⁶ cm/s.
`CCCCCCSc1cc(Cl)c(C(=O)CCN2CCN(S(=O)(=O)CC)CC2)c(Cl)c1` showed a Papp of 50 ×10⁻⁶ cm/s. This Papp lies about 7.6-fold lower than the previous one.
On to `CCCCCC(=O)Nc1ccc(C(=O)CCN(C)C)cc1`, for which the Papp was determined as 560 ×10⁻⁶ cm/s.
The figure for `CCCCCCOc1ccc(C(=O)CCN(C)C)c(C)c1` is 750 ×10⁻⁶ cm/s; for `CCCCCCSc1ccc(C(=O)CCN2CC2C)c(Cl)c1Cl` (configuration not stated) it is 70 ×10⁻⁶ cm/s.
Consider `CCCCCCSc1ccc(C(=O)CCN2CCOCC2)c(Cl)c1Cl`, for which the Papp stood at 170 ×10⁻⁶ cm/s.
In turn, `CCCCCCOc1ccc(C(=O)CCN(C)C)cc1Br` showed a Papp of 460 ×10⁻⁶ cm/s.
On to `CCCCCCSc1cc(Cl)c(C(=O)CCN(C)C)cc1Cl`, for which the Papp amounted to 330 ×10⁻⁶ cm/s.
As to `CCCCCCSc1cc(Cl)c(C(=O)CCN2CCNC(=O)C2)cc1Cl`, the Papp amounted to 810 ×10⁻⁶ cm/s. This Papp is about 2.5-fold higher than that of the compound before.
The figure for `CCCCCCS(=O)(=O)c1cc(Cl)c(C(=O)CCN2CCNC(=O)C2)cc1Cl` is 540 ×10⁻⁶ cm/s.
Under `CCCCCCOc1cc(C(C)C)c(C(=O)CCN(C)C)cc1C` stands 860 ×10⁻⁶ cm/s; under `CCCN1CCN(c2ccc(C(=O)CCN(C)C)cc2)CC1`, 320 ×10⁻⁶ cm/s; under `CCCCCCS(=O)(=O)c1ccc(C(=O)CCN(C)C)cc1`, 780 ×10⁻⁶ cm/s.
Take `CCCCCCOc1ccc(C(=O)CCN(C)C)cc1-c1ccccc1`: the Papp amounted to 830 ×10⁻⁶ cm/s.
Consider `CCCCCCSc1ccc(C(=O)CCN(C)C)c(Cl)c1Cl`, for which the Papp was found to be 140 ×10⁻⁶ cm/s.
The figure for `CCCCNC(=O)Nc1ccc(C(=O)CCN(C)C)cc1` is 10 ×10⁻⁶ cm/s; for `CCCCCCOc1ccc(C(=O)CCN(CCCC)CCCC)cc1` it is 560 ×10⁻⁶ cm/s; for `CCCCCCOc1ccc(C(=O)CCN(C)C)cc1C(F)(F)F` it is 930 ×10⁻⁶ cm/s.
In the case of `CCCCCCOc1ccc(C(=O)CCN(C)C)cc1I`, the Papp was determined as 540 ×10⁻⁶ cm/s.
The compound `CCCCCCSc1cc(Cl)c(C(=O)CCN2CCN(S(=O)(=O)CC)CC2)cc1Cl` had a Papp of 20 ×10⁻⁶ cm/s.
The figure for `CCCCCCSc1cc(Cl)c(C(=O)CCN(C)C)c(Cl)c1` is 350 ×10⁻⁶ cm/s.
With `CCCCCCSc1cc(Cl)c(C(=O)CCN2CC2C)c(Cl)c1` (configuration not stated), the Papp is 190 ×10⁻⁶ cm/s.
Under `CCCCCCS(=O)(=O)c1cc(Cl)c(C(=O)CCN(C)C)c(Cl)c1` stands 170 ×10⁻⁶ cm/s.
The figure for `CCCCCCS(=O)(=O)c1cc(Cl)c(C(=O)CCN(C)C)cc1Cl` is 90 ×10⁻⁶ cm/s.
In turn, `CCCCCCS(=O)(=O)c1cc(Cl)c(C(=O)CCN2CCOCC2)cc1Cl` had a Papp of 680 ×10⁻⁶ cm/s. This Papp is about 7.6-fold higher than that of the compound before.
Compound `CCCCCCS(=O)(=O)c1ccc(C(=O)CCN2CC2C)c(Cl)c1` (configuration not stated) had an apparent permeability coefficient (Papp) of 160 ×10⁻⁶ cm/s.
Under `CCCCCCS(=O)(=O)c1ccc(C(=O)CCN2CCN(S(=O)(=O)CC)CC2)c(Cl)c1` stands 300 ×10⁻⁶ cm/s; under `CCCCCCNC(=O)c1ccc(C(=O)CCN(C)C)cc1`, 770 ×10⁻⁶ cm/s.
Regarding `CCCCCCOc1ccc(C(=O)CCN2CC2C)c(Cl)c1Cl` (configuration not stated), the Papp came out at 370 ×10⁻⁶ cm/s.
As to `CCCCCCOc1ccc(-c2ccc(C(=O)CCN(C)C)cc2)cc1`, the Papp stood at 150 ×10⁻⁶ cm/s. This Papp lies about 2.5-fold lower than the previous one.
Under `CCCCCCS(=O)(=O)c1ccc(C(=O)CCN2CCN(C(C)=O)CC2)c(Cl)c1Cl` stands 770 ×10⁻⁶ cm/s; under `CCCCCCS(=O)(=O)c1ccc(C(=O)CCN2CC2C)c(Cl)c1Cl` (configuration not stated), 440 ×10⁻⁶ cm/s.
The figure for `CCCCCCSc1ccc(C(=O)CCN2CC2C)c(Cl)c1` (configuration not stated) is 500 ×10⁻⁶ cm/s.
The figure for `CCCCCCS(=O)(=O)c1cc(C)c(C(=O)CCN2CCN(C(C)=O)CC2)c(C)c1` is 470 ×10⁻⁶ cm/s; for `CCCCCCS(=O)(=O)c1cc(Cl)c(C(=O)CCN2CCN(C(C)=O)CC2)cc1Cl` it is 670 ×10⁻⁶ cm/s.
With `CCCCCCS(=O)(=O)c1cc(Cl)c(C(=O)CCN2CCN(S(=O)(=O)CC)CC2)cc1Cl`, the Papp is 730 ×10⁻⁶ cm/s.
Under `CCCCCCS(=O)(=O)c1cc(Cl)c(C(=O)CCN2CCOCC2)c(Cl)c1` stands 470 ×10⁻⁶ cm/s.
Under `CCCCCCOc1cc(Cl)c(C(=O)CCN2CCN(S(=O)(=O)CC)CC2)c(Cl)c1` stands 860 ×10⁻⁶ cm/s.
For the compound `CCCCCCS(=O)(=O)c1cc(Cl)c(C(=O)CCN2CC2C)c(Cl)c1` (configuration not stated), the Papp came out at 980 ×10⁻⁶ cm/s.
Take `CCCCCCS(=O)(=O)c1ccc(C(=O)CCN2CCNC(=O)C2)c(Cl)c1`: the Papp came to 240 ×10⁻⁶ cm/s.
In the case of `CCCCCCS(=O)(=O)c1cc(Cl)c(C(=O)CCN2CCNC(=O)C2)c(Cl)c1`, the Papp was determined as 430 ×10⁻⁶ cm/s.
The figure for `CCCCCCOc1ccc(C(=O)CCN(C)C)c(I)c1` is 270 ×10⁻⁶ cm/s; for `CCCCCCOc1ccc(C(=O)CCN2CC2C)c(Cl)c1` (configuration not stated) it is 870 ×10⁻⁶ cm/s; for `CCCCCCS(=O)(=O)c1cc(Cl)c(C(=O)CCN2CC2C)cc1Cl` (configuration not stated) it is 260 ×10⁻⁶ cm/s.
`CCCCCCSc1cc(C)c(C(=O)CCN2CC2C)c(C)c1` (configuration not stated) came in with a Papp of 770 ×10⁻⁶ cm/s.
